In ChEMBL document CHEMBL4507308 (2021):
Blank lines part the entries; values can stand above or below the compound they belong to. Calls of active or inactive are those of the source. The calls are words filed in the database; no cut-off is given here.

Columns and labels:
Activin receptor type-1B [1] = target: T1, Activin receptor type-1B (Homo sapiens, UniProt P36896); experiment: NanoBRET (SGC Frankfurt) (ACVR1B)
T1 sequence (P36896 whole entry): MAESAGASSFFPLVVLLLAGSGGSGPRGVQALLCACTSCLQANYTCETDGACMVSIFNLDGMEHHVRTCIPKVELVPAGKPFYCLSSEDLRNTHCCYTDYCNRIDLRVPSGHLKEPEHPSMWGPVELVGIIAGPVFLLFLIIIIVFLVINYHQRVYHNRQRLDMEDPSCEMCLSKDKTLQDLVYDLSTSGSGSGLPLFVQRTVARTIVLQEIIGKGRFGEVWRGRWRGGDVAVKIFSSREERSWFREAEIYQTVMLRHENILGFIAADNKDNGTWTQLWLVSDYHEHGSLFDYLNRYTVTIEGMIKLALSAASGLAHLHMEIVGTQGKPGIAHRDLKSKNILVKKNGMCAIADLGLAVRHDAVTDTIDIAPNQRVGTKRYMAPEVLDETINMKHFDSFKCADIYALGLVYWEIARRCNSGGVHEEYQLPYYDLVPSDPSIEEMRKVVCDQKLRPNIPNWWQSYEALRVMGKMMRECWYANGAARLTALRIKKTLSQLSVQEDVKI

[2] = target: Beta-1 adrenergic receptor (Homo sapiens) (UniProt P08588); settings: Compound concentration 10.0 uM
[3] = target: 5-hydroxytryptamine receptor 3A (Homo sapiens) (UniProt P46098); settings: Compound concentration 10.0 uM
[4] = target: Alpha-1A adrenergic receptor (Homo sapiens) (UniProt P35348); settings: Compound concentration 10.0 uM
[5] = target: Histamine H3 receptor (Homo sapiens) (UniProt Q9Y5N1); settings: Compound concentration 10.0 uM
[6] = target: 5-hydroxytryptamine receptor 5A (Homo sapiens) (UniProt P47898); settings: Compound concentration 10.0 uM
[7] = target: Muscarinic acetylcholine receptor M5 (Homo sapiens) (UniProt P08912); settings: Compound concentration 10.0 uM
[8] = target: Alpha-2B adrenergic receptor (Homo sapiens) (UniProt P18089); settings: Compound concentration 10.0 uM
[9] = target: Beta-3 adrenergic receptor (Homo sapiens) (UniProt P13945); settings: Compound concentration 10.0 uM
[10] = target: Alpha-1B adrenergic receptor (Homo sapiens) (UniProt P35368); settings: Compound concentration 10.0 uM
[11] = target: T2, GABA-A receptor; anion channel (Rattus norvegicus) (UniProt O09028+P15431+P18506+P18508+P19969+P20236+P23574+P23576+P28471+P28473+P30191+P62813+P63079+P63138+Q91ZM7+Q9ES14); settings: Compound concentration 10.0 uM
[12] = target: 5-hydroxytryptamine receptor 1A (Homo sapiens) (UniProt P08908); settings: Compound concentration 10.0 uM
Rattus norvegicus = species on record: Rattus norvegicus; settings: Compound concentration 10.0 uM
[13] = target: Alpha-2C adrenergic receptor (Homo sapiens) (UniProt P18825); settings: Compound concentration 10.0 uM
[14] = target: Muscarinic acetylcholine receptor M1 (Homo sapiens) (UniProt P11229); settings: Compound concentration 10.0 uM
[15] = target: 5-hydroxytryptamine receptor 2A (Homo sapiens) (UniProt P28223); settings: Compound concentration 10.0 uM
[16] = target: GABA-A receptor; anion channel; experiment: GPCRScan assay: inhibition of GABAA/BZP; format: protein-complex assay, Rattus norvegicus; parameters: radioligand conc. used [nm] 0.6 – 4.0, parental cells brain tissue
[17] = target: D(1B) dopamine receptor (Homo sapiens) (UniProt P21918); settings: Compound concentration 10.0 uM
[18] = target: 5-hydroxytryptamine receptor 2C (Homo sapiens) (UniProt P28335); settings: Compound concentration 10.0 uM
[19] = target: T3, Sodium-dependent dopamine transporter (Homo sapiens, UniProt Q01959); settings: Compound concentration 10.0 uM
[20] = target: Histamine H1 receptor (Homo sapiens) (UniProt P35367); settings: Compound concentration 10.0 uM
[21] = target: 5-hydroxytryptamine receptor 7 (Homo sapiens) (UniProt P34969); settings: Compound concentration 10.0 uM
[22] = target: Sodium-dependent serotonin transporter (Homo sapiens) (UniProt P31645); settings: Compound concentration 10.0 uM
[23] = target: Muscarinic acetylcholine receptor M2 (Homo sapiens) (UniProt P08172); settings: Compound concentration 10.0 uM
[24] = target: 5-hydroxytryptamine receptor 1B (Homo sapiens) (UniProt P28222); settings: Compound concentration 10.0 uM
[25] = target: D(1A) dopamine receptor (Homo sapiens) (UniProt P21728); settings: Compound concentration 10.0 uM
[26] = target: Muscarinic acetylcholine receptor M3 (Homo sapiens) (UniProt P20309); settings: Compound concentration 10.0 uM
[27] = target: Beta-2 adrenergic receptor (Homo sapiens) (UniProt P07550); settings: Compound concentration 10.0 uM
[28] = target: Muscarinic acetylcholine receptor M4 (Homo sapiens) (UniProt P08173); settings: Compound concentration 10.0 uM
[29] = target: 5-hydroxytryptamine receptor 6 (Homo sapiens) (UniProt P50406); settings: Compound concentration 10.0 uM
[30] = target: Alpha-1D adrenergic receptor (Homo sapiens) (UniProt P25100); settings: Compound concentration 10.0 uM
[31] = target: T4, 5-hydroxytryptamine receptor 2B (Homo sapiens, UniProt P41595); experiment: GPCRScan assay: inhibition of 5-HT2B; parameters: radioligand conc. used [nm] 1.0 – 2.0, parental cells stable HEK
[32] = target: Alpha-2A adrenergic receptor (Homo sapiens) (UniProt P08913); settings: Compound concentration 10.0 uM
[33] = target: D(4) dopamine receptor (Homo sapiens) (UniProt P21917); settings: Compound concentration 10.0 uM
[34] = target: T4, 5-hydroxytryptamine receptor 2B; settings: Compound concentration 10.0 uM
[35] = target: Sigma intracellular receptor 2 (Homo sapiens) (UniProt Q5BJF2); settings: Compound concentration 10.0 uM
TGF-beta receptor type-1 = TGF-beta receptor type-1 (Homo sapiens, UniProt P36897); experiment: NanoBRET (SGC Frankfurt) (TGFBR1)
[36] = target: D(2) dopamine receptor (Homo sapiens) (UniProt P14416); settings: Compound concentration 10.0 uM
[37] = target: Calcium/calmodulin-dependent protein kinase type 1B (Homo sapiens, UniProt Q6P2M8); experiment: NanoBRET (SGC Frankfurt) (PNCK)
[38] = target: Phosphatidylinositol 4,5-bisphosphate 3-kinase catalytic subunit alpha isoform (Homo sapiens, UniProt P42336); experiment: NanoBRET (SGC Frankfurt) (PIK3CA)
Activin receptor type-1B [39] = target: T1, Activin receptor type-1B; experiment: Lathascreen (Takeda) (ACVR1B)
[40] = target: Tyrosine-protein kinase JAK1 (Homo sapiens, UniProt P23458); experiment: NanoBRET (SGC Frankfurt) (JAK1)
[41] = target: Histamine H2 receptor (Homo sapiens) (UniProt P25021); settings: Compound concentration 10.0 uM
[42] = target: 5-hydroxytryptamine receptor 1D (Homo sapiens) (UniProt P28221); settings: Compound concentration 10.0 uM
Activin receptor type-1B [43] = target: T1, Activin receptor type-1B; experiment: Radioactive kinase assay (ACVR1B)
[44] = target: Epithelial discoidin domain-containing receptor 1 (Homo sapiens, UniProt Q08345); experiment: NanoBRET (SGC Frankfurt) (DDR1)
[45] = target: 5-hydroxytryptamine receptor 1E (Homo sapiens) (UniProt P28566); settings: Compound concentration 10.0 uM
[46] = target: D(3) dopamine receptor (Homo sapiens) (UniProt P35462); settings: Compound concentration 10.0 uM
[47] = target: Histamine H4 receptor (Homo sapiens) (UniProt Q9H3N8); settings: Compound concentration 10.0 uM
[48] = target: T2, GABA-A receptor; anion channel (Rattus norvegicus); settings: Compound concentration 10.0 uM; remark: listed apart in the source
Activin receptor type-1B [49] = target: T1, Activin receptor type-1B; experiment: Reporter gene assay (ACVR1B)
[50] = target: T3, Sodium-dependent dopamine transporter; experiment: GPCRScan assay: inhibition of DAT; parameters: radioligand conc. used [nm] 3.6 – 16.0, parental cells stable HEK

T4 sequence (P41595 whole entry): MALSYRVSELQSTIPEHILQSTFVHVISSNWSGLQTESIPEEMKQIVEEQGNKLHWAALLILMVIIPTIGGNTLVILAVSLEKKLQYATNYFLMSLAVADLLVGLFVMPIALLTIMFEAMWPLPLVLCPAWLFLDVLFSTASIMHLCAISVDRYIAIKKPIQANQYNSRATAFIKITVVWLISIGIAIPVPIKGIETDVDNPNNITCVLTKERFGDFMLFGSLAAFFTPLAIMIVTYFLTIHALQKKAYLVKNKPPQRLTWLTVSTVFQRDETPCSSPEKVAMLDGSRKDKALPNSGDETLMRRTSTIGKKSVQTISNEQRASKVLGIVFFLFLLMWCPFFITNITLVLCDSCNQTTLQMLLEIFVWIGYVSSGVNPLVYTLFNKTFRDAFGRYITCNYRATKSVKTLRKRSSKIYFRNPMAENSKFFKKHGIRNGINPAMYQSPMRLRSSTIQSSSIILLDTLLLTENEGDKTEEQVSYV
T3 sequence (Q01959 whole entry): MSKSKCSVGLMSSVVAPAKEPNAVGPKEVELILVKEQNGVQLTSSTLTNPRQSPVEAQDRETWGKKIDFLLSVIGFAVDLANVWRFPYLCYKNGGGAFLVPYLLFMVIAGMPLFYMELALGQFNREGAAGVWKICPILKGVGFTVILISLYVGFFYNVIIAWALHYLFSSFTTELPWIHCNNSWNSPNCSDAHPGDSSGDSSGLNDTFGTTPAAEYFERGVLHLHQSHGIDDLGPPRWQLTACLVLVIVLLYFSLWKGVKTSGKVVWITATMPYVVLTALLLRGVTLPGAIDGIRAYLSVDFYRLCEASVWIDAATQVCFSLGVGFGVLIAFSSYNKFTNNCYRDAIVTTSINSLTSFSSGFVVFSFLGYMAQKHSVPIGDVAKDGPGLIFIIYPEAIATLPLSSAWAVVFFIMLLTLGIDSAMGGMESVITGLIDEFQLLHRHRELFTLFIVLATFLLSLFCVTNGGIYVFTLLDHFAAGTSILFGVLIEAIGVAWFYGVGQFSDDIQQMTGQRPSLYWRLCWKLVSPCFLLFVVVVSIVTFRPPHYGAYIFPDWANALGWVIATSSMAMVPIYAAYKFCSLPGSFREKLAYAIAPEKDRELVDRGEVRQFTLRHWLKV
D(2) dopamine receptor (Homo sapiens), sequence (P14416 whole entry): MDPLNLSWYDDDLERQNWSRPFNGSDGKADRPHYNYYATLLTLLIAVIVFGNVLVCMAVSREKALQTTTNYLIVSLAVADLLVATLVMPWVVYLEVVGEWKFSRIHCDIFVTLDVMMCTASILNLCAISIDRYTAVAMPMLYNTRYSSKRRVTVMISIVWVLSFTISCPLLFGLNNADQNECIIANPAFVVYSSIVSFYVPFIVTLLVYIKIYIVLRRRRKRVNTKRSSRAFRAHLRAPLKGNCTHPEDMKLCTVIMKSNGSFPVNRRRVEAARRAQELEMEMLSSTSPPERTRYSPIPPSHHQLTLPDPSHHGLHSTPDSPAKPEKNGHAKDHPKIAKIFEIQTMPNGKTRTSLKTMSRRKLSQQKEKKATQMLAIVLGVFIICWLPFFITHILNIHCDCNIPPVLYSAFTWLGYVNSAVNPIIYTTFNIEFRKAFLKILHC
Muscarinic acetylcholine receptor M5 (Homo sapiens), sequence (P08912 whole entry): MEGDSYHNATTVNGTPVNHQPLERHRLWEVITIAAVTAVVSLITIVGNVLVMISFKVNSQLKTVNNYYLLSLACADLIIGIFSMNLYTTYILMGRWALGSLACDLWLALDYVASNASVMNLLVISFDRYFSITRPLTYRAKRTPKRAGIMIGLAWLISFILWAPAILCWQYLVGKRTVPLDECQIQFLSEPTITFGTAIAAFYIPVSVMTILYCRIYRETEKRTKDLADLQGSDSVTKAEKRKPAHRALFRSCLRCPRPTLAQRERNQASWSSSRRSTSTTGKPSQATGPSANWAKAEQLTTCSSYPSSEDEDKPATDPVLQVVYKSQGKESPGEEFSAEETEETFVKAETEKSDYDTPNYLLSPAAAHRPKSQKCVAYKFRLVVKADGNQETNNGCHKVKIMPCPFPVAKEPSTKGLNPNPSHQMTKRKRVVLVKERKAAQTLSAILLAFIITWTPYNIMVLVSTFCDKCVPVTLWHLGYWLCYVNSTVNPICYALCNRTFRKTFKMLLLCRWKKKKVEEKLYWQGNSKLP
Alpha-2C adrenergic receptor (Homo sapiens), sequence (P18825 whole entry): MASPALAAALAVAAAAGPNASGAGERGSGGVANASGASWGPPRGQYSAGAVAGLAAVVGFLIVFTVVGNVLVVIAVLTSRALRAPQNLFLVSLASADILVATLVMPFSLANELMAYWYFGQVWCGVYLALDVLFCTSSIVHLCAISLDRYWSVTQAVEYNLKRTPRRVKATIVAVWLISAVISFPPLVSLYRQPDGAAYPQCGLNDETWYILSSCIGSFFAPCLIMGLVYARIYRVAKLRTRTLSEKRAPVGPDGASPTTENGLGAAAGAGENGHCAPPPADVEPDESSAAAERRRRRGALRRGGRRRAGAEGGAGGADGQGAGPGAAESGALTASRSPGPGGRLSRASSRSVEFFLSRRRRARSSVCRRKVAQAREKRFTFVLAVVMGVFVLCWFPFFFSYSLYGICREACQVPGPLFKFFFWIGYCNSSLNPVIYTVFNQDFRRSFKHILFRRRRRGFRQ
Beta-3 adrenergic receptor (Homo sapiens), sequence (P13945 whole entry, looked up): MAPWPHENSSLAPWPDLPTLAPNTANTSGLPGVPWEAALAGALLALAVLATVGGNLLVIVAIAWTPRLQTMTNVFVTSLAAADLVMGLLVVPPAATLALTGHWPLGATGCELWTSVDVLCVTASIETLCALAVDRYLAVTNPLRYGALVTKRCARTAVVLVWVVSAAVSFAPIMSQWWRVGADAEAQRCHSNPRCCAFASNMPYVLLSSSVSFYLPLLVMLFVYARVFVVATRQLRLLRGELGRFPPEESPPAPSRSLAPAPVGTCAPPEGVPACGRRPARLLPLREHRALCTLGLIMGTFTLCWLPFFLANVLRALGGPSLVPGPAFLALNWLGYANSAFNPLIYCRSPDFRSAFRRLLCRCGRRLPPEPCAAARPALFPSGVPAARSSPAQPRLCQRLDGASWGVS
Alpha-1B adrenergic receptor (Homo sapiens), sequence (P35368 whole entry): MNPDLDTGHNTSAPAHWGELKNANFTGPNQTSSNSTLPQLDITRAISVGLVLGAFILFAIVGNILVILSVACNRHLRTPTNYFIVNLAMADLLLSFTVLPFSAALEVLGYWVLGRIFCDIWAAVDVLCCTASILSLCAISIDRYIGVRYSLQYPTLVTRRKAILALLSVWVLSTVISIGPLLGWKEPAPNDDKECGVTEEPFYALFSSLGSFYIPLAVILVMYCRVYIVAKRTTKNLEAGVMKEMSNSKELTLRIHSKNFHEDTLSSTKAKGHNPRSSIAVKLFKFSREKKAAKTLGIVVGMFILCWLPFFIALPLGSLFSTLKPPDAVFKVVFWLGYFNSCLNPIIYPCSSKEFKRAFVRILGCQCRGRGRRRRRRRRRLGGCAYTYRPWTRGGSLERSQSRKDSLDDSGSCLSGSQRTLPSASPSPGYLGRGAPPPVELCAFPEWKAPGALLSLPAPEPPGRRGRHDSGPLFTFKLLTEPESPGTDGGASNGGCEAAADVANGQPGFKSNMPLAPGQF
5-hydroxytryptamine receptor 1A (Homo sapiens), sequence (P08908 whole entry): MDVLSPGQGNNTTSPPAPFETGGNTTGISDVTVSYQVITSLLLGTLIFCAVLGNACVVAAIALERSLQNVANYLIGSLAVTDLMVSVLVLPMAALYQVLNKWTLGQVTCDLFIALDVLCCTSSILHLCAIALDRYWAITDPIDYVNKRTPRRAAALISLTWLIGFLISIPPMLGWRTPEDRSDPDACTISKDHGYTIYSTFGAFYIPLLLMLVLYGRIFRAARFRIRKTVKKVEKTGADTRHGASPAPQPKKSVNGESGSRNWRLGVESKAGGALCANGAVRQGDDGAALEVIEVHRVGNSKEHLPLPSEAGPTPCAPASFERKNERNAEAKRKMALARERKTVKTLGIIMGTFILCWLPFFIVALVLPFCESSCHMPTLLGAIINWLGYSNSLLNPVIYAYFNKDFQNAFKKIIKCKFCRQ
Beta-2 adrenergic receptor (Homo sapiens), sequence (P07550 whole entry, looked up): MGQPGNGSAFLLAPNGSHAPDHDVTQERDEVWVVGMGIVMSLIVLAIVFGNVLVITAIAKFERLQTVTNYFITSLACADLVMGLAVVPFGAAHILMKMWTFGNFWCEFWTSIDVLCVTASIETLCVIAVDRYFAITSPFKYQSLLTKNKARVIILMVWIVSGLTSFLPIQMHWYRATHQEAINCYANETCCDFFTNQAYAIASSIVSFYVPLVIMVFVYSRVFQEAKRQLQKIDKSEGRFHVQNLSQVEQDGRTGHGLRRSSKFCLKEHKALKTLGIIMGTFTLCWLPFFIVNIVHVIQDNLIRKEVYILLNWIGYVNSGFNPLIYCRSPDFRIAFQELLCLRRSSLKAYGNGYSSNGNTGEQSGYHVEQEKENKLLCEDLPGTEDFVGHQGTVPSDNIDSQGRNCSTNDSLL
5-hydroxytryptamine receptor 1B (Homo sapiens), sequence (P28222 whole entry): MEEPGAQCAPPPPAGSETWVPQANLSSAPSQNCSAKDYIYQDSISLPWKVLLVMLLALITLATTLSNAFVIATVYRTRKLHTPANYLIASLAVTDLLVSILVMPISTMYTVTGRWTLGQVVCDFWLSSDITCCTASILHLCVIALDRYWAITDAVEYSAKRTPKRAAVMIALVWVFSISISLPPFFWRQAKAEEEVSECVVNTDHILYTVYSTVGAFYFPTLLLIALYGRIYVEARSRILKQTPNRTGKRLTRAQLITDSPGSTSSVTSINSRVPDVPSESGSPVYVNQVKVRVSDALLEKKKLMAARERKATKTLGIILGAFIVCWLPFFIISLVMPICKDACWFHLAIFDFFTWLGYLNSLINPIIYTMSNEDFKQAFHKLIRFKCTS
Sigma intracellular receptor 2 (Homo sapiens), sequence (Q5BJF2 whole entry): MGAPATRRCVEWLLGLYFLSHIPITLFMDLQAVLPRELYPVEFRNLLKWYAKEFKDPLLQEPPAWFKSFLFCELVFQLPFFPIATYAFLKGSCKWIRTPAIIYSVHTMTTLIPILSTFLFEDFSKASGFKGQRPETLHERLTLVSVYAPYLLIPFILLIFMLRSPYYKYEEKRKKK

- IC50 (Activin receptor type-1B [1]): > 10000 nM (not active)
- inhibition [2]: 25.8%
- inhibition [3]: 19.9%
- inhibition [4]: 0.25%
- inhibition [5]: -8.16%
- inhibition [6]: -0.66%
- inhibition [7]: 1.56%
- inhibition [8]: 17.3%
- inhibition [9]: 9.94%
- inhibition [10]: 5.45%
- inhibition [11]: 50.2%
- inhibition [12]: 12%
- inhibition (Rattus norvegicus): 27.1%
- inhibition [13]: 17.9%
- inhibition [14]: -1.17%
- inhibition [15]: 11.2%
- Ki [16]: 2750 nM
- inhibition [17]: 6.12%
- inhibition [18]: 10.2%
- inhibition [19]: -4.34%
- inhibition [20]: -2.43%
- inhibition [21]: 12.1%
- inhibition [22]: 14.3%
- inhibition [23]: 14.4%
- inhibition [24]: -7.07%
- inhibition [25]: -2.08%
- inhibition [26]: -5.28%
- inhibition [27]: 16.7%
- inhibition [28]: 3.09%
- inhibition [29]: 14.1%
- inhibition [30]: 2.71%
- Ki ([31]; read-out: Ki): 1590 nM
- Ki ([31]; read-out: pKi (converted)): 1570 nM
- inhibition [32]: 3.1%
- inhibition [33]: -1.38%
- inhibition [34]: 72%
- inhibition [35]: 41.6%
- IC50 (TGF-beta receptor type-1): > 10000 nM (not active)
- inhibition [36]: -1.99%
Structure (SMILES): Cc1cnc(-c2cc(Cl)ccc2F)cc1-n1c(=O)n(CC(N)=O)c2ccccc21 [Al11]

- inhibition [3]: -6.36%
- inhibition [4]: -2.17%
- IC50 [37]: > 20000 nM (not active)
- IC50 [38]: > 20000 nM (not active)
- inhibition [5]: 30.5%
- inhibition [6]: 16.8%
- IC50 (Activin receptor type-1B [39]): 1000 nM (active)
- inhibition [7]: -5.69%
- inhibition [8]: 18.1%
- inhibition [9]: 3.94%
- IC50 [40]: > 20000 nM (not active)
- inhibition [41]: 6.53%
- inhibition [42]: 5.53%
- inhibition [10]: 3.76%
- IC50 (Activin receptor type-1B [43]): 126 nM (active)
- inhibition [11]: 31.8%
- inhibition [12]: 22.9%
- inhibition (Rattus norvegicus): -8.98%
- inhibition [13]: -5.16%
- inhibition [14]: -3.81%
- inhibition [15]: -0.869%
- inhibition [18]: 15.5%
- IC50 [44]: > 20000 nM (not active)
- inhibition [19]: 87.6%
- inhibition [20]: 0.849%
- inhibition [45]: -5.81%
- inhibition [46]: 2.27%
- inhibition [21]: 3.98%
- inhibition [22]: 3.84%
- inhibition [23]: 2.23%
- inhibition [24]: 19.5%
- inhibition [25]: 12.9%
- inhibition [26]: -7.48%
- inhibition [27]: 13.9%
- inhibition [47]: 26.6%
- inhibition [28]: -3.08%
- inhibition [48]: 27.3%
- IC50 (Activin receptor type-1B [49]): 526 nM (active)
- inhibition [29]: -4.28%
- Ki ([31]; read-out: Ki): 1880 nM
- inhibition [32]: -0.767%
- inhibition [33]: 5.41%
- inhibition [34]: 70.5%
- inhibition [35]: -2.75%
- Ki [50]: 10000 nM
- pKi [50]: 5
- inhibition [36]: -5.48%
Structure (SMILES): Cc1cnc(-c2cc(Cl)ccc2F)cc1-n1c(=O)n(CC(N)=O)c2cnccc21 [TP-008]
